Read-outs that look alike come from different tables or passages of the source.
Target: T1, cone CNG channels (CNGA3:CNGB3) (Homo sapiens, UniProt Q16281+Q9NQW8)
T1 construct: expressed in transfected cells; host or cells: Xenopus laevis oocytes (cRNA injection, pGEMHE vector); inside-out patches
T1 sequence (Q16281 1-694): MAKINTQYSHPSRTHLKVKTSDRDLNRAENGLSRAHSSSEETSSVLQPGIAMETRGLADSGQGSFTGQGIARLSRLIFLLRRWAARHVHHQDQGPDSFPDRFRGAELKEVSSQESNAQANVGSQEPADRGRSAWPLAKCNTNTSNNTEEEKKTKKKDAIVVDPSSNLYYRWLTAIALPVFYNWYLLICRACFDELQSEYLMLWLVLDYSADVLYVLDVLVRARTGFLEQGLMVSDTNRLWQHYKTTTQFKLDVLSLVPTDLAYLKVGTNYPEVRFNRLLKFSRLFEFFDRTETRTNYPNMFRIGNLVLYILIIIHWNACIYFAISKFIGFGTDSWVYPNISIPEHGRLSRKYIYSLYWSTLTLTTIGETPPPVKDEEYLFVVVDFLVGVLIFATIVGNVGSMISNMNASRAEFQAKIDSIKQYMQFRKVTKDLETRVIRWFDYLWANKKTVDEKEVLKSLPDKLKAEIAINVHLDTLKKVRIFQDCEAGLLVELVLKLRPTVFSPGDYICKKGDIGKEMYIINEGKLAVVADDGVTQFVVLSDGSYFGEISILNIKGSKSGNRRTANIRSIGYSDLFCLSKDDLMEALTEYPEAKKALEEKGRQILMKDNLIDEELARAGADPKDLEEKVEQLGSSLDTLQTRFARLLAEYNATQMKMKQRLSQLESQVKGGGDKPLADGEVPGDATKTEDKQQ
T1 sequence (Q9NQW8 1-809): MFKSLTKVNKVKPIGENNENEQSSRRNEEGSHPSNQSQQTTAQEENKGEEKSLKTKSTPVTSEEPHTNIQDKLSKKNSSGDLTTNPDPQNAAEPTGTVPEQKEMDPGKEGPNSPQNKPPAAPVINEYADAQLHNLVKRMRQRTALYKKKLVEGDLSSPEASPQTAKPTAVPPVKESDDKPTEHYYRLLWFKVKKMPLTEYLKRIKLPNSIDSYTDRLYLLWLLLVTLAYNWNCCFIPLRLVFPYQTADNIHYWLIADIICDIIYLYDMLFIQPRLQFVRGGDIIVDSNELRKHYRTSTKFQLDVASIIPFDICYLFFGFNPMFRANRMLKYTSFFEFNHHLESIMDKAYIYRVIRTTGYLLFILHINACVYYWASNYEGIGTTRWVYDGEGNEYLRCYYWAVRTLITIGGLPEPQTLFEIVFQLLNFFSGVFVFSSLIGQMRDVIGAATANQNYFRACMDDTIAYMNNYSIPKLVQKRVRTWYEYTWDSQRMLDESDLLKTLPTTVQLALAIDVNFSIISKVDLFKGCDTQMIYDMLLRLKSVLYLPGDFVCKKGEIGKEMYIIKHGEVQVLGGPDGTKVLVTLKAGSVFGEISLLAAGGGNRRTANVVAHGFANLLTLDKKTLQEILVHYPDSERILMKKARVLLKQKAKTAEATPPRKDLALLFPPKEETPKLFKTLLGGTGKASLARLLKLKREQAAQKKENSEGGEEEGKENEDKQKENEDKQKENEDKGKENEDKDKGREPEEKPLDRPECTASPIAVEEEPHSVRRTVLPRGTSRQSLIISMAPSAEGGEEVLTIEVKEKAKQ
Experiment: Patch-clamp on inside-out patches, heterotetrameric cone CNG channels expressed in Xenopus laevis oocytes
Format: cell-based
Description: The patch pipettes were pulled from borosilicate glass tubing (outer diameter 2.0 mm, inner diameter 1.0 mm; Hilgenberg GmbH, Malsfeld, Germany). The initial resistance of the solution-filled pipettes was 0.6–1.4 MΩ. […] For studying the activation and deactivation kinetics of CNG channels, we performed fast jumps between different ligand concentrations by means of a double-barreled θ-glass pipette mounted on a piezo-driven device, which was controlled by the computer. For measuring the time courses, the recording rate was 20 kHz.
The activation and deactivation time courses were determined by fitting the respective current traces with single exponentials:(3) I(t)=A∗exp[−t/τ] where A is the amplitude, t the time, and τ the time constant for either activation or deactivation.

Row | cone CNG-channel activation (0.1 µM) | potency compared to cGMP, cone channel (higher potency than cGMP) | H (Hill coefficient), cone CNG channels (ligand alone) | EC50 (ligand alone, concentration-activation relationship, Hill fit, read-out: EC50, cone CNG channels) [nM] | Compound | EC50 [nM] | decrease in the apparent affinity of cone CNG channels (50 µM analogue) | H (Hill coefficient), cone CNG channels (cGMP + 50 µM of the cGMP analogue)
1 | ~ 90% | ~ 138 times | 1.74 | 80 | Nc1nc2c(nc(Sc3ccc(Cl)cc3)n2[C@@H]2O[C@@H]3COP(=O)(O)O[C@H]3[C@H]2O)c(=O)[nH]1 [8-pCPT-cGMP] | – | – | –
2 | – | – | – | – | O=c1c2nc(Br)n([C@@H]3O[C@@H]4CO[P@@](=O)(S)O[C@H]4[C@H]3O)c2nc2[nH]c(-c3ccccc3)cn12 [Rp-8-Br-PET-cGMPS] | 4400 | ~ 3.2 fold | 1.97

— publication PMC9612005 (Pharmaceutics, 2022)
